Three compounds from US7897626B2, “2-substituted thiazole-4-carboxamide derivatives, their preparation and use as pharmaceuticals” (Bayer Schering Pharma AG, priority 2007, dated 2011) can be followed below.

The subject of this experiment is TLR7. The experiment can be described thus: TLR-induced cytokine release (TNF-alpha) in human PBMC, TLR7 ligand stimulation. The experiment is classed as cell-based. The note with it: human PBMC incubated 18 hours with test substance and TLR7 ligand; TNF-alpha in supernatant by ELISA; read-out: EC50 (TNF-α TLR7). The protocol: TLR-Induced Cytokine Release in Human “Peripheral Blood Mononuclear Cells” (PBMC)
PBMCs isolated from human whole blood are stimulated using a TLR ligand.
The cytokine determination is carried out by means of ELISA kits; a proliferation/cell metabolism determination is carried out using Alamar Blue.
For the cell preparation, about 200 ml of blood are treated with an anticoagulant (e.g. citrate Monovettes). Per Leucosep tube, 15 ml of Histopaque (room temperature, RT) are poured in and forced downwards through the inserted frit by brief initial centrifugation (one minute at 1000×g, RT). 20 ml of blood are added to the tubes prepared in this way and centrifuged at 800×g for 15 minutes (RT). After centrifugation, the following layered arrangement results from the top to the bottom:
plasma-PBMC-Histopaque-filter disc-Histopaque-erythrocytes and granulocytes. The supernatant plasma is aspirated. The PBMC are transferred together with the underlying Histopaque to a new 50 ml tube, the contents of two Leucosep tubes always being added to one 50 ml tube. The 50 ml tubes are then filled to 50 ml with PBS. This cell suspension is centrifuged at 300×g (RT) for 10 minutes.
The liquid supernatant is tipped off and the cell pellet is resuspended with a little PBS and subsequently filled to 50 ml with PBS. This washing step is repeated twice. The resulting pellet is taken up in a defined volume of medium (with additives). For the testing of the substances, PBMC are incubated for 18 hours with titrated concentrations of the test substances, e.g. in the presence or absence of TLR7 or TLR9 ligands. On the next day, the supernatants are investigated for the content of TNF-alpha or other cytokines or chemokines by means of specific ELISA. The metabolic activity of the treated cells is determined with the aid of Alamar Blue.

As to `Cn1cc(NC(=O)c2csc(-c3cn[nH]c3)n2)c(C(N)=O)n1` [Example 1, 2-(1H-Pyrazol-4-yl)thiazole-4-(3-carbamoyl-1-methyl-1H-pyrazol-4-yl)-carboxamide], the half-maximal effective concentration (EC50) was 50 nM.
For `Cc1cc(-c2nc(C(=O)Nc3ccccc3C(N)=O)cs2)cs1` [Example 2, N-[2-(Aminocarbonyl)phenyl]-2-(5-methyl-3-thienyl)-4-thiazole-carboxamide], the half-maximal effective concentration (EC50) turned out to be 3800 nM.
With `Cc1ccc(C(N)=O)c(NC(=O)c2csc(-c3cn[nH]c3)n2)c1` [Example 3, N-[2-(Aminocarbonyl)-5-methylphenyl]-2-(1H-pyrazol-4-yl)thiazole-4-carboxamide] the figure was 120 nM.

Broadly, the EC50 is the midpoint of the concentration-response curve.
